± gives the uncertainty stated by the source.
Test: xn = mol fraction of the nth substance listed

C1C[C@@H]2[C@H]3CC[C@H](C3)[C@@H]2C1 + CCCCO
viscosity [mPa·s], 101 kPa
Conditions	x2 = 0.1697	x2 = 0.3148	x2 = 0.4378	x2 = 0.5481	x2 = 0.6472	x2 = 0.7336	x2 = 0.8102	x2 = 0.8799	x2 = 0.9439
293.15 K	2.796 ± 0.041	2.675 ± 0.038	2.646 ± 0.036	2.66 ± 0.036	2.694 ± 0.035	2.743 ± 0.035	2.807 ± 0.036	2.855 ± 0.036	2.906 ± 0.036
298.15 K	2.513 ± 0.036	2.397 ± 0.034	2.354 ± 0.032	2.355 ± 0.032	2.372 ± 0.031	2.416 ± 0.031	2.465 ± 0.031	2.505 ± 0.032	2.543 ± 0.032
303.15 K	2.282 ± 0.033	2.177 ± 0.031	2.128 ± 0.029	2.118 ± 0.028	2.135 ± 0.028	2.165 ± 0.028	2.211 ± 0.028	2.242 ± 0.028	2.272 ± 0.028
313.15 K	1.882 ± 0.027	1.773 ± 0.025	1.708 ± 0.024	1.685 ± 0.023	1.682 ± 0.022	1.7 ± 0.022	1.719 ± 0.022	1.743 ± 0.022	1.766 ± 0.022

CC(=O)CCC(=O)O + C[N+](C)(C)CCO.[Cl-]
viscosity [mPa·s]
Conditions	293.15 K	298.15 K	303.15 K	308.15 K	313.15 K	318.15 K	323.15 K
100 kPa, x2 = 0.33	320.6 ± 15	226.8 ± 10	164.5 ± 7.1	122.5 ± 5.2	93.62 ± 3.9	72.54 ± 3	57.48 ± 2.3
101 kPa, x1 = 0.75	134.2 ± 5.9	–	79.14 ± 3.4	–	47.76 ± 2	–	31.29 ± 1.3
101 kPa, x2 = 0.25	–	132.9 ± 5.8	–	–	–	46.9 ± 2	–
101 kPa, x2 = 0.333	–	207.8 ± 9.4	–	–	–	68 ± 3	–

O=C(O)c1ccccc1O + CCCCO
viscosity [mPa·s]
Conditions	308.15 K	313.15 K	318.15 K	323.15 K
101 kPa, x1 = 0.14	2.453 ± 0.02	–	–	–
101 kPa, x1 = 0.173	2.656 ± 0.022	–	–	–
101 kPa, x1 = 0.193	2.761 ± 0.023	–	–	–
101.33 kPa, x1 = 0.14	2.453 ± 0.065	2.187 ± 0.058	1.951 ± 0.052	1.736 ± 0.046
101.33 kPa, x1 = 0.193	2.761 ± 0.074	2.375 ± 0.063	2.154 ± 0.057	1.928 ± 0.051

Nc1cccc(Cl)c1 + CCCCO
viscosity [mPa·s], 101 kPa
Conditions	x1 = 0.0884	x1 = 0.1792	x1 = 0.2723	x1 = 0.368	x1 = 0.4662	x1 = 0.5671	x1 = 0.6708	x1 = 0.7774	x1 = 0.8871
303.15 K	2.47 ± 0.084	2.654 ± 0.09	2.84 ± 0.096	3.03 ± 0.1	3.219 ± 0.11	3.412 ± 0.11	3.607 ± 0.12	3.806 ± 0.13	4.02 ± 0.13
308.15 K	2.198 ± 0.075	2.371 ± 0.081	2.546 ± 0.087	2.72 ± 0.092	2.895 ± 0.098	3.073 ± 0.1	3.253 ± 0.11	3.441 ± 0.11	3.635 ± 0.12
313.15 K	1.966 ± 0.068	2.128 ± 0.073	2.284 ± 0.078	2.441 ± 0.083	2.598 ± 0.088	2.759 ± 0.093	2.923 ± 0.098	3.091 ± 0.1	3.261 ± 0.11
318.15 K	1.761 ± 0.062	1.911 ± 0.066	2.052 ± 0.071	2.19 ± 0.075	2.328 ± 0.08	2.468 ± 0.084	2.61 ± 0.088	2.756 ± 0.093	2.897 ± 0.098

O=C(O)c1ccccc1O + CCCO
viscosity [mPa·s]
Conditions	308.15 K	313.15 K	318.15 K	323.15 K
101 kPa, x1 = 0.133	2.13 ± 0.018	–	–	1.51 ± 0.014
101 kPa, x1 = 0.16	2.236 ± 0.019	–	–	1.602 ± 0.015
101 kPa, x1 = 0.179	2.427 ± 0.02	–	–	1.69 ± 0.016
101 kPa, x1 = 0.191	2.4 ± 0.02	–	–	1.722 ± 0.016
101.33 kPa, x1 = 0.16	2.236 ± 0.059	2.012 ± 0.053	1.791 ± 0.048	1.602 ± 0.042
101.33 kPa, x1 = 0.19	–	2.17 ± 0.057	1.929 ± 0.051	1.722 ± 0.046

Nc1cccc(Cl)c1 + O=C1CCCCC1
viscosity [mPa·s], 100 kPa
Conditions	x1 = 0.0814	x1 = 0.1705	x1 = 0.2826	x1 = 0.3886	x1 = 0.4996	x1 = 0.5895	x1 = 0.6899	x1 = 0.7755	x1 = 0.8882
303.15 K	1.954 ± 0.1	2.11 ± 0.1	2.323 ± 0.1	2.542 ± 0.1	2.793 ± 0.1	3.014 ± 0.1	3.28 ± 0.1	3.525 ± 0.1	3.875 ± 0.1
308.15 K	1.779 ± 0.1	1.92 ± 0.1	2.112 ± 0.1	2.31 ± 0.1	2.535 ± 0.1	2.733 ± 0.1	2.971 ± 0.1	3.191 ± 0.1	3.503 ± 0.1
313.15 K	1.589 ± 0.1	1.716 ± 0.1	1.888 ± 0.1	2.065 ± 0.1	2.266 ± 0.1	2.442 ± 0.1	2.655 ± 0.1	2.85 ± 0.1	3.128 ± 0.1
318.15 K	1.382 ± 0.1	1.495 ± 0.1	1.648 ± 0.1	1.805 ± 0.1	1.984 ± 0.1	2.141 ± 0.1	2.33 ± 0.1	2.505 ± 0.1	2.753 ± 0.1

Nc1cccc(Cl)c1 + O=[N+]([O-])c1ccccc1
viscosity [mPa·s], 100 kPa
Conditions	x1 = 0.5896	x1 = 0.6785	x1 = 0.7825
303.15 K	–	–	3.915 ± 0.1
318.15 K	2.615 ± 0.1	2.755 ± 0.1	–

CCCCN(CCO)CCCC + O=S=O
303.15 K, 100 kPa
Conditions	viscosity [mPa·s]
x2 = 0.17	19.3
x2 = 0.33	198.3
x2 = 0.45	2527

CCC(=O)O + Cc1ccccc1N
viscosity [mPa·s], 100 kPa
Conditions	x2 = 0.0977	x2 = 0.1983	x2 = 0.2728	x2 = 0.3622	x2 = 0.4952	x2 = 0.5997	x2 = 0.6763	x2 = 0.7449	x2 = 0.8891
303.15 K	1.2 ± 0.04	1.45 ± 0.05	1.64 ± 0.05	1.85 ± 0.06	2.16 ± 0.07	2.4 ± 0.08	2.57 ± 0.08	2.72 ± 0.09	3.03 ± 0.09
308.15 K	1.1 ± 0.04	1.31 ± 0.04	1.47 ± 0.05	1.65 ± 0.05	1.91 ± 0.06	2.11 ± 0.07	2.25 ± 0.07	2.38 ± 0.07	2.64 ± 0.08
313.15 K	1 ± 0.03	1.19 ± 0.04	1.32 ± 0.04	1.48 ± 0.05	1.71 ± 0.05	1.88 ± 0.06	2 ± 0.06	2.11 ± 0.07	2.33 ± 0.07
318.15 K	0.91 ± 0.03	1.07 ± 0.03	1.18 ± 0.04	1.32 ± 0.04	1.51 ± 0.05	1.66 ± 0.05	1.76 ± 0.06	1.85 ± 0.06	2.03 ± 0.06

CCC(=O)O + CC(C)O
viscosity [mPa·s], 101 kPa
Conditions	x2 = 0.007361	x2 = 0.0288	x2 = 0.04944	x2 = 0.06903	x2 = 0.1	x2 = 0.1291	x2 = 0.1819	x2 = 0.2287
298.15 K	2.67 ± 0.54	2.6 ± 0.52	2.54 ± 0.51	2.475 ± 0.5	2.4 ± 0.48	2.342 ± 0.47	2.277 ± 0.46	2.22 ± 0.45
308.15 K	1.99 ± 0.4	1.948 ± 0.39	1.915 ± 0.39	1.882 ± 0.38	1.836 ± 0.37	1.8 ± 0.36	1.75 ± 0.35	1.71 ± 0.34
318.15 K	1.54 ± 0.31	1.52 ± 0.31	1.5 ± 0.3	1.484 ± 0.3	1.454 ± 0.29	1.428 ± 0.29	1.392 ± 0.28	1.367 ± 0.28
